Experimental data taken from patent US20090170749A1, “Novel Compounds Which Interact With PEA-15” (Institut National De La Sante Et De La Recherche Medicale …, priority 2005, published 2009).
Entries after “also recorded” stand apart in the source; their conditions may differ.

Tests used:
GFP-PEA-15 = target: T1, GFP-PEA-15 (Mus musculus, UniProt Q62048); experiment: Detection of the interaction of 6D6-1 with GFP-PEA-15 by FRET in 3T3-GFP-PEA-15 cells; type: cell-based; conditions: 6D6-1 tested at 10^-4 M and 10^-5 M, 60 minutes, excitation 465 nm
T1 construct: expressed in transfected cells
Method: The cell line 3T3 expressing the GFP-PEA-15 (3T3-GFP-PEA-15 cell) was obtained as described by FORMSTECHER et al. (Dev. Cell., 2001, 1:239) by transfection of NIH3T3 cells with a EGFP-PEA-15 plasmide obtained as described by KITSBERG et al. (J. Neurosci., 1999, 19: 8244).
Clones resistant to the neomycin (G418) were selected and cultivated in a DMEM (Roche) medium supplemented with 10% of foetal calf serum, 2 mM of glutamine, penicillin (5 IU/ml) and streptomycin ([…]).
The GFP-PEA-15 protein expression was checked by the measurement of the fluorescence of the living cells and a WESTERN transfer analysis with an anti-GFP antibody (Roche, cat. No. 1,814,460 mixture of two monoclonal antibodies obtained from a mouse (clone 7.1 and clone 13.1)) and an anti-PEA-15 (rabbit polyclonal antibody, Sharif et al., Neuroscience, 126: 263, 2004).
The 3T3-GFP-PEA-15 cells are then cultivated up to confluence in a HAM-F12 medium comprising penicillin (10 000 U/ml)/streptomycin (10 000 μg/ml), 7% of foetal calf serum (BIOWHITTAKER) before the fluorescence resonance energy transfer (FRET) experiences. […]
After adding the 6D6-1 compound, the cells are gently agitated (100 rpm) for 60 minutes before the fluorescence read-out, in order to enable the compounds to diffuse and enter into the cells. […]
The GFP protein excited at 465 nm emits a fluorescence signal at 535 nm.

ERK = experiment: Effect of 6D6-1 on ERK and PEA-15 subcellular location in primary astrocyte cultures (confocal microscopy); type: cell-based, mouse; conditions: primary astrocytes, 24 hours without serum; 50 μM 6D6-1 for 2 hours 15 minutes
Method: Primary astrocyte cultures were prepared from cortex and striatum of mouse embryos (day 16) as described by ARAUJO et al. (J. Biol. Chem., 1993, 268: 5911).
The primary astrocyte cultures were maintained for 24 hours in the absence of serum, a condition known to induce a mainly cytoplasmic location of ERK.
The cells were then treated or not with 50 μM of the 6D6-1 compound for 2 hours 15 minutes.
The subcellular location of ERK and PEA-15 was observed by confocal microscopy after labeling the cells with fluorescent antibodies.
The cells were washed twice with PBS (Dulbecco phosphate saline buffer, without CaCl2 nor MgCl2, Sigma), and fixed with 4% paraformaldehyde in PBS (pH 7.5), for 15 minutes, then washed twice with PBS comprising 0.1 M of glycine, at ambient temperature.
Then, the cells were incubated for 5 minutes in PBS containing 0.2% of X-100 triton.
The non-specific sites were blocked with PBS containing 10% of normal goat serum (NGS) for one hour at ambient temperature.
Then the cells were incubated overnight at 4° C. with PEA-15 specific antibodies (rabbit polyclonal antibody, Sharif et al., Neuroscience, 2004) or ERK specific antibodies (rabbit polyclonal antibody, Santa Cruz K-23 (ref. Sc-94)), diluted in PBS containing 1.5% of NGS. […]

[1] = target: T2, GST-PEA-15 fusion protein (Mus musculus, UniProt Q62048); experiment: 6D6-1/PEA-15 protein interaction: fluorescence of glutathione Sepharose beads carrying GST-PEA-15; type: binding
T2 construct: made in house
Method: The GST-PEA-15 fusion protein was obtained according to the protocol described by Kitsberg et al. (J. Neurosci, 1999, 19: 8244).
The GST-PEA-15 fusion proteins were recovered after lysis of bacteria and were incubated together with a Sepharose bead covered with glutathione.
The beads thus obtained are incubated in the presence of 1 or 5 μM of 6D6-1, in a 20 mM Tris-HCl, pH 7.4; 100 mM NaCl; 1 mM MgCl2; 1% Triton X-100 buffer).
After a series of three washings, the beads are dried on a cellulose membrane and the fluorescence is quantified by means of a phosphoimager (Biorad), by measuring the fluorescence of the lissamine with excitation at 543 nm and measurement of the emission at 590 nm.
The results are the average of three independent experiences.

T2 sequence (Q62048 whole entry, the tested form may be a part): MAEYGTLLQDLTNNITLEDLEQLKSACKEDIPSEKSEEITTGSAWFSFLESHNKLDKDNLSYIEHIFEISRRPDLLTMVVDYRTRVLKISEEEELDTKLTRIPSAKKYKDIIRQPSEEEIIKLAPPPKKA
T1 sequence (Q62048 whole entry): as the sequence (Q62048 whole entry, the tested form may be a part) above

With “1-methyl-piperidin-4-His(Bzl)-Lys(o-Lissamine)-1-methyl-1H-imidazol-4-yl)-acetamide [Compound 6D6-1]” the “fluorescence resonance energy transfer (FRET) on binding to GFP-PEA-15, fluorescence signal at 590 nm” value (GFP-PEA-15) was “enables a fluorescence resonance energy transfer (FRET)”, the “subcellular location of ERK” value (ERK) was “relocation of the ERK protein in the core; also recorded: relocation of ERK in the nucleus” and the “subcellular location of PEA-15” value (ERK) was “remains cytoplasmic”. For the same substance, the “average intensity of fluorescence of beads carrying GST-PEA-15” value ([1]; 1 or 5 μM 6D6-1, excitation 543 nm, emission 590 nm, average of three independent experiences) was “depends upon the concentration of the compound” and the “interaction with PEA-15 protein” value ([1]; general statement of the inventors' observation) was “able to interact in a specific way with a PEA-15 protein”.
